Several values for one entry are separate records, joined by “and”; a condition that tells them apart may be missing. Equal entries are not always repeated. Structures can show the parent of a compound that is named as a salt.
biological target: MK-2 (Homo sapiens, UniProt P49137); assay: Determination of MK-2 IC50 (phosphorylation of HSP-peptide, anion exchange resin capture assay); format: biochemical; settings: additional values are replicate IC50 experiments; mixture of stereoisomers implied unless otherwise noted; read-out: MK-2 Avg. IC50
Sequence (P49137 whole entry, species assumed): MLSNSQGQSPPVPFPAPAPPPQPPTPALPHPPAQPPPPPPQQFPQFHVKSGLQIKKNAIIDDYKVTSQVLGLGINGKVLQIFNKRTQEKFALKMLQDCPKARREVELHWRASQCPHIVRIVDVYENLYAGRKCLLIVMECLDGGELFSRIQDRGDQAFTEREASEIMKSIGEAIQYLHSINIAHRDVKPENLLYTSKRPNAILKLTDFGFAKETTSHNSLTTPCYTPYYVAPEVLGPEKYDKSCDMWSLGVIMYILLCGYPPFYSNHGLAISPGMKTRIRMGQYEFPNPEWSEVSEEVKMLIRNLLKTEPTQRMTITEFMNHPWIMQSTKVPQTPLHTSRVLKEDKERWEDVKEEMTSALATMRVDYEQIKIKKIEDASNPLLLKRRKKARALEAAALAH

Row | SMILES | IC50
1 | COC(=O)[C@@H]1Cc2c([nH]c3ccccc23)C(C)(C(=O)O)N1 (mixture of isomers) [Example 228, 3-(methoxycarbonyl)-1-methyl-2,3,4,9-tetrahydro-1H-beta-carboline-1-carboxylic acid] | > 200 µM
2 | COC(=O)C1c2[nH]c3ccc(OC)cc3c2CCN1Cc1ccccc1 (stereo not drawn) [Example 168, methyl 2-benzyl-6-methoxy-2,3,4,9-tetrahydro-1H-beta-carboline-1-carboxylate] | > 200 µM
3 | CCOC(=O)C1(C(=O)OCC)NCCc2c1[nH]c1ccc(OC)cc21 [Example 171, diethyl 6-methoxy-2,3,4,9-tetrahydro-1H-beta-carboline-1,1-dicarboxylate] | > 200 µM
4 | COc1ccc2[nH]c3c(c2c1)CCNC3(CC(=O)O)C(=O)O (stereo not drawn) [Example 226, 1-(carboxymethyl)-6-methoxy-2,3,4,9-tetrahydro-1H-beta-carboline-1-carboxylic acid] | > 200 µM
5 | COc1ccc2[nH]c3c(c2c1)CCNC3(CCC(=O)O)C(=O)O (stereo not drawn) [Example 178, 1-(2-carboxyethyl)-6-methoxy-2,3,4,9-tetrahydro-1H-beta-carboline-1-carboxylic acid] | > 200 µM
6 | COc1ccc2c3c([nH]c2c1)C(Cc1ccc(OC)c(OC)c1OC)(C(=O)O)NCC3 (stereo not drawn) [Example 203, 7-methoxy-1-[(2,3,4-trimethoxyphenyl)methyl]-2,3,4,9-tetrahydro-1H-beta-carboline-1-carboxylic acid, acetate (1:1)] | > 200 µM
7 | COc1ccc2[nH]c3c(c2c1)CCN1C3C(=O)NC1(C)C (centres unmarked) [Example 180, 8-methoxy-3,3-dimethyl-2,3,5,6,11,11b-hexahydro-1H-imidazo[1′,5′:1,2]pyrido[3,4-b]indol-1-one] | > 200 µM
8 | COc1ccc2[nH]c3c(c2c1)CCN1COC(=O)C31 (centres unmarked) [Example 236, 8-methoxy-5,6,11,11b-tetrahydro-1H-[1,3]oxazolo[3′,4′:1,2]pyrido[3,4-b]indol-1-one] | > 200 µM
9 | O=C1NCCc2c1[nH]c1ccc(C#Cc3ccccc3)cc21 [Example 248, 6-(phenylethynyl)-2,3,4,9-tetrahydro-1H-beta-carbolin-1-one] | > 200 µM
10 | O=C1NCCc2c1[nH]c1ccccc21 [Example 260, 1H-Pyrido[3,4-b]indol-1-one,2,3,4,9-tetrahydro- or 2,3,4,9-tetrahydro-1H-beta-carbolin-1-one] | > 200 µM
11 | COC(=O)C1c2[nH]c3ccc(OC)cc3c2CCN1CCNC(=O)OC(C)(C)C (stereo not drawn) [Example 195, methyl 2-{2-[(tert-butoxycarbonyl)amino]ethyl}-6-methoxy-2,3,4,9-tetrahydro-1H-beta-carboline-1-carboxylate] | > 200 µM
12 | COC(=O)C1(CCl)NCCc2c1[nH]c1ccccc21 (stereo not drawn) [Example 164, methyl 1-(chloromethyl)-2,3,4,9-tetrahydro-1H-beta-carboline-1-carboxylate] | > 200 µM
13 | COc1cc2[nH]c3c(c2cc1OC)CCNC3C(=O)O (stereo not drawn) [Example 201, 6,7-dimethoxy-2,3,4,9-tetrahydro-1H-beta-carboline-1-carboxylic acid trifluoroacetate] | > 200 µM
14 | COc1ccc2[nH]c3c(c2c1)CCNC3C(=O)NCC(=O)O (stereo not drawn) [Example 229, N-[(6-methoxy-2,3,4,9-tetrahydro-1H-beta-carbolin-1-yl)carbonyl]glycine hydrochloride hydrate] | > 200 µM
15 | COC(=O)C1c2[nH]c3ccc(OC)cc3c2CCN1C(C)C (stereo not drawn) [Example 199, methyl 2-isopropyl-6-methoxy-2,3,4,9-tetrahydro-1H-beta-carboline-1-carboxylate] | > 200 µM
16 | CCOC(=O)CCCOc1ccc2[nH]c3c(c2c1)CCNC3C(=O)O (stereo not drawn) [Example 130, 6-(4-ethoxy-4-oxobutoxy)-2,3,4,9-tetrahydro-1H-beta-carboline-1-carboxylic acid hydrochloride] | 100 µM
17 | Cc1ccc2[nH]c3c(c2c1)CCNC3C(=O)O (stereo not drawn) [Example 216, 6-methyl-2,3,4,9-tetrahydro-1H-beta-carboline-1-carboxylic acid hydrochloride] | > 200 µM
18 | NNC(=O)c1cccc2[nH]c3c(c12)CCNC3C(=O)O (stereo not drawn) [Example 200, 5-(hydrazinocarbonyl)-2,3,4,9-tetrahydro-1H-beta-carboline-1-carboxylic acid trifluoroacetate] | > 200 µM

Second part, the compound after the results:

Row | IC50 | SMILES
19 | 39.9 µM | O=C(O)C1NCCc2c1[nH]c1ccc(OCc3ccccn3)cc21 (stereo not drawn) [Example 101, 6-(pyridin-2-ylmethoxy)-2,3,4,9-tetrahydro-1H-beta-carboline-1-carboxylic acid hydrochloride]
20 | 50.1 µM | CCOC(=O)c1ccc2c3c([nH]c2c1)CCNC3=O [Example 110, ethyl 1-oxo-2,3,4,5-tetrahydro-1H-pyrido[4,3-b]indole-7-carboxylate]
21 | > 200 µM | COc1ccc2c3c([nH]c2c1)C(=O)NCC3 [Example 264, 7-methoxy-2,3,4,9-tetrahydro-1H-beta-carbolin-1-one]
22 | > 200 µM | COc1ccc2[nH]c3c(c2c1)CCNC3[C@H](O)CO (stereo partly drawn) [Example 239, (1S)-1-(6-methoxy-2,3,4,9-tetrahydro-1H-beta-carbolin-1-yl)ethane-1,2-diol trifluoroacetate]
23 | 105 µM | CCOC(=O)c1ccc(COc2ccc3[nH]c4c(c3c2)CCNC4C(=O)O)o1 (stereo not drawn) [Example 133, 6-{[5-(ethoxycarbonyl)-2-furyl]methoxy}-2,3,4,9-tetrahydro-1H-beta-carboline-1-carboxylic acid]
24 | > 200 µM | COc1ccc2[nH]c3c(c2c1)C(Cc1ccco1)CNC3C(=O)O (stereo not drawn) [Example 222, 4-(2-furylmethyl)-6-methoxy-2,3,4,9-tetrahydro-1H-beta-carboline-1-carboxylic acid trifluoroacetate]
25 | > 200 µM | COc1ccc2[nH]c3c(c2c1)CCNC3CC#N (stereo not drawn) [Example 231, (6-methoxy-2,3,4,9-tetrahydro-1H-beta-carbolin-1-yl)acetonitrile]
26 | 182 µM | COC(=O)c1cccc(COc2ccc3[nH]c4c(c3c2)CCNC4C(=O)O)c1 (stereo not drawn) [Example 159, 6-{[3-(methoxycarbonyl)benzyl]oxy}-2,3,4,9-tetrahydro-1H-beta-carboline-1-carboxylic acid hydrochloride]
27 | > 200 µM | COC(=O)C1(C)NCCc2c1[nH]c1ccccc21 (centres unmarked) [Example 212, 1h-Pyrido[3,4-B]Indole-1-Carboxylic Acid, 2,3,4,9-Tetrahydro-1-Methyl-,Methyl Ester]
28 | > 200 µM | O=C1NCCc2c1[nH]c1c(Br)cc3c(c21)OCCO3 [Example 256, 6-bromo-2,3,7,9,10,11-hexahydro-8H-[1,4]dioxino[2,3-e]pyrido[3,4-b]indol-8-one]
29 | 48.9 µM | O=C1NCCc2c1[nH]c1ccc(O)cc21 [Example 108, 6-hydroxy-2,3,4,9-tetrahydro-1H-beta-carbolin-1-one]
30 | > 200 µM | COc1ccc2[nH]c3c(c2c1)CCNC3CN (stereo not drawn) [Example 230, 1-(6-methoxy-2,3,4,9-tetrahydro-1H-beta-carbolin-1-yl)methanamine trifluoroacetate hydrate]
31 | > 200 µM | COc1ccc2[nH]c3c(c2c1)CCNC3CO (stereo not drawn) [Example 221, (6-methoxy-2,3,4,9-tetrahydro-1H-beta-carbolin-1-yl)methanol]
32 | 156 µM | ON=C1CCCc2c1[nH]c1ccc(C(F)(F)F)cc21 [Example 154, 6-(trifluoromethyl)-2,3,4,9-tetrahydro-1H-carbazol-1-one oxime]
33 | > 200 µM | COc1ccc2[nH]c3c(c2c1)CC(C(F)(F)F)NC3C(=O)O (stereo not drawn) [Example 205, 6-methoxy-3-(trifluoromethyl)-2,3,4,9-tetrahydro-1H-beta-carboline-1-carboxylic acid]
34 | 112 µM | O=C(O)C1NCCc2c1[nH]c1ccc(OCc3ccc(Cl)cc3)cc21 (stereo not drawn) [Example 136, 6-[(4-chlorobenzyl)oxy]-2,3,4,9-tetrahydro-1H-beta-carboline-1-carboxylic acid]
35 | > 200 µM | COc1ccc2[nH]c3c(c2c1)CCNC3C(=O)NN (stereo not drawn) [Example 161, 6-methoxy-2,3,4,9-tetrahydro-1H-beta-carboline-1-carbohydrazide]
36 | 117 µM | O=C(O)C1NCCc2c1[nH]c1ccc(OCCCc3ccccc3)cc21 (stereo not drawn) [Example 139, 6-(3-phenylpropoxy)-2,3,49-tetrahydro-1H-beta-carboline-1-carboxylic acid]
37 | 42.6 µM | O=C(O)C1NCCc2c1[nH]c1ccc(OCc3cccnc3)cc21 (stereo not drawn) [Example 102, 6-(pyridin-3-ylmethoxy)-2,3,4,9-tetrahydro-1H-beta-carboline-1-carboxylic acid hydrochloride]
38 | 130 µM | COc1ccc(Oc2ccc3[nH]c4c(c3c2)CCC/C4=N\O)cc1 [Example 144, 6-(4-methoxyphenoxy)-2,3,4,9-tetrahydro-1H-carbazol-1-one oxime]
39 | 95.1 µM and 98.2 µM | C=CCN1CCc2c([nH]c3ccc(OC)cc23)C1C(=O)O (stereo not drawn) [Example 128, potassium 2-allyl-6-methoxy-2,3,4,9-tetrahydro-1H-beta-carboline-1-carboxylate]
40 | > 200 µM | Cc1cccc2c3c([nH]c12)C(=O)NCC3 [Example 258, 1H-Pyrido[3,4-b]indol-1-one,2,3,4,9-tetrahydro-8-methyl- or 8-methyl-2,3,4,9-tetrahydro-1H-beta-carbolin-1-one]
41 | > 200 µM | COc1ccc2[nH]c3c(c2c1)CCC(C)(C)C3=NO (mixture of isomers) [Example 272, 6-methoxy-2,2-dimethyl-2,3,4,9-tetrahydro-1H-carbazol-1-one oxime]
42 | > 200 µM | CCOC(=O)C1c2[nH]c3ccccc3c2CCN1C(=O)c1ccc(OC)o1 (centres unmarked) [Example 211, 1h-Pyrido[3,4-B]Indole-1-Carboxylic Acid, 2,3,4,9-Tetrahydro-2-[(5-Methoxy-2-Furanyl)Carbonyl]-,Ethyl Ester]
43 | > 200 µM | COc1ccc2[nH]c3c(c2c1)CCN(C(=O)OCc1ccccc1)C3C(=O)NCC(=O)OCc1ccccc1 (stereo not drawn) [Example 218, 2-[(benzyloxy)carbonyl]-6-methoxy-N-[2-(benzyloxy)-2-oxo]ethyl-2,3,4,9-tetrahydro-1H-beta-carboline-1-carboxamide]
44 | > 200 µM | COc1ccc2[nH]c3c(c2c1)C(c1ccccc1)CNC3C(=O)O (stereo not drawn) [Example 233, 6-methoxy-4-phenyl-2,3,4,9-tetrahydro-1H-beta-carboline-1-carboxylic acid]

From patent US20050137220A1 (Pharmacia Corporation, priority 2003, published 2005)
